Data published in the NIST ThermoML archive (doi:10.1021/je100848r).

Experiments:
[1] = 101 kPa, Liquid
[2] = xn = mol fraction of the nth substance listed; settings: 101 kPa, Liquid

CCC(=O)[O-].OCC[NH2+]CCO [bis(2-hydroxyethyl)ammonium propanoate]
[1]
Settings	mass density [kg/m3]	viscosity [mPa·s]
293.15 K	1142.7	740.28
303.15 K	1136.1	322.17
313.15 K	1129.2	157.97
323.15 K	1125.2	96.54

CCC(=O)[O-].OCC[NH2+]CCO [bis(2-hydroxyethyl)ammonium propanoate] + CCCO
[2]
Settings	mass density, 293.15 K [kg/m3]	mass density, 303.15 K [kg/m3]	mass density, 313.15 K [kg/m3]	mass density, 323.15 K [kg/m3]	viscosity, 293.15 K [mPa·s]	viscosity, 303.15 K [mPa·s]	viscosity, 313.15 K [mPa·s]	viscosity, 323.15 K [mPa·s]
x1 = 0.0585	846.5	839	831.3	823.1	31.6	15.37	6.146	3.897
x1 = 0.1031	875.3	867.9	860.4	852.6	53.29	21.15	9.633	6.039
x1 = 0.2292	942.2	935	927.7	920.9	120.07	47.98	21.6	13.44
x1 = 0.3021	973.6	966.5	959.3	952.9	161.5	66.19	29.62	18.46
x1 = 0.4017	1010.3	1003.3	996.2	990.3	221.9	91.87	41.98	26.24
x1 = 0.5009	1041.2	1034.3	1027.3	1021.9	288.32	119.16	56.4	35.31
x1 = 0.636	1076.2	1069.4	1062.5	1057.6	393.08	163.5	80.35	50.21
x1 = 0.7135	1093.1	1086.4	1079.5	1074.8	461.84	194.52	96.42	60.05
x1 = 0.8018	1110.2	1103.5	1096.5	1092.1	547.5	234.75	116.23	72
x1 = 0.8979	1126.6	1119.9	1113	1108.8	646.69	281.11	138.08	84.93
x1 = 0.9568	1136	1129.3	1122.4	1118.4	701.08	304.98	149.64	92.03
x1 = 1	1142.7	1136.1	1129.2	1125.2	740.28	322.17	157.97	96.54

CCC(=O)[O-].OCC[NH2+]CCO [bis(2-hydroxyethyl)ammonium propanoate] + CCO
[2]
Settings	mass density, 293.15 K [kg/m3]	mass density, 303.15 K [kg/m3]	mass density, 313.15 K [kg/m3]	mass density, 323.15 K [kg/m3]	viscosity, 293.15 K [mPa·s]	viscosity, 303.15 K [mPa·s]	viscosity, 313.15 K [mPa·s]	viscosity, 323.15 K [mPa·s]
x1 = 0.0536	842.7	834.4	826.6	818.5	28.36	14.2	5.271	3.309
x1 = 0.1087	887.2	879.2	871.7	864.2	55.19	21.36	9.602	5.974
x1 = 0.2052	947	939.4	932.2	925.5	105.81	41.43	18.6	11.54
x1 = 0.3168	997.5	990.1	983	977.1	167.85	68.6	30.49	18.98
x1 = 0.4238	1034.5	1027.3	1020.2	1014.8	231.31	95.16	43.46	27.2
x1 = 0.5084	1058.3	1051.2	1044.2	1039.1	284.44	116.45	54.87	34.45
x1 = 0.5946	1078.8	1071.8	1064.9	1060	343.18	140.21	68.08	42.81
x1 = 0.6965	1099.1	1092.3	1085.4	1080.8	428.04	177.51	88.08	55.22
x1 = 0.804	1116.8	1110	1103.1	1098.8	531.61	226.45	112.51	70.07
x1 = 0.8895	1128.8	1122	1115.1	1111	626.32	271.72	133.71	82.61
x1 = 0.9458	1136	1129.3	1122.4	1118.3	686.37	298.35	146.49	90.38
x1 = 1	1142.7	1136.1	1129.2	1125.2	740.28	322.17	157.97	96.54

CCC(=O)[O-].OCC[NH2+]CCO [bis(2-hydroxyethyl)ammonium propanoate] + CO
[2]
Settings	mass density, 293.15 K [kg/m3]	mass density, 303.15 K [kg/m3]	mass density, 313.15 K [kg/m3]	mass density, 323.15 K [kg/m3]	viscosity, 293.15 K [mPa·s]	viscosity, 303.15 K [mPa·s]	viscosity, 313.15 K [mPa·s]	viscosity, 323.15 K [mPa·s]
x1 = 0.0437	851.2	842.3	833.3	826.8	23.19	13.01	4.242	2.639
x1 = 0.1045	913.4	905.2	896.9	891.1	52.44	20.18	8.903	5.509
x1 = 0.2138	987.8	980.3	972.6	967.8	109.39	42.76	19	11.76
x1 = 0.2957	1024.6	1017.4	1010	1005.5	153.61	62.12	27.33	16.99
x1 = 0.4	1058.1	1051.2	1044	1039.7	210.82	86.11	38.58	24.16
x1 = 0.5038	1082.4	1075.6	1068.6	1064.6	269.65	109.07	50.82	32.04
x1 = 0.6125	1101.8	1095.2	1088.3	1084.5	337.06	135.36	65.92	41.76
x1 = 0.6981	1114	1107.6	1100.9	1097.1	399.51	162.04	80.81	51.21
x1 = 0.8026	1126.4	1120	1113.3	1109.7	496.91	208.61	104.49	65.82
x1 = 0.9121	1136.5	1130.1	1123.4	1119.7	636.96	276.64	135.75	84.16
x1 = 0.9587	1140	1133.5	1126.8	1123	692.41	301.08	147.67	91.46
x1 = 1	1142.7	1136.1	1129.2	1125.2	740.28	322.17	157.97	96.54

CCO [ethanol]
[1]
Settings	mass density [kg/m3]	viscosity [mPa·s]
293.15 K	789.3	1.18
303.15 K	780.7	1.019
313.15 K	772.5	0.8424
323.15 K	763.6	0.7081

CCO [ethanol] + CCC(=O)[O-].OCC[NH2+]CCO
[2], x2 = 0
Settings	mass density [kg/m3]	viscosity [mPa·s]
293.15 K	789.3	1.18
303.15 K	780.7	1.019
313.15 K	772.5	0.8424
323.15 K	763.6	0.7081

CO [methanol]
[1]
Settings	mass density [kg/m3]	viscosity [mPa·s]
293.15 K	791.2	0.6075
303.15 K	781.8	0.5535
313.15 K	772.3	0.501
323.15 K	765.1	0.4601

CO [methanol] + CCC(=O)[O-].OCC[NH2+]CCO
[2], x2 = 0
Settings	mass density [kg/m3]	viscosity [mPa·s]
293.15 K	791.2	0.6075
303.15 K	781.8	0.5535
313.15 K	772.3	0.501
323.15 K	765.1	0.4601

CCCO [propan-1-ol]
[1]
Settings	mass density [kg/m3]	viscosity [mPa·s]
293.15 K	803.2	2.141
303.15 K	795.5	1.788
313.15 K	787.6	1.391
323.15 K	778.7	1.098

CCCO [propan-1-ol] + CCC(=O)[O-].OCC[NH2+]CCO
[2], x2 = 0
Settings	mass density [kg/m3]	viscosity [mPa·s]
293.15 K	803.2	2.141
303.15 K	795.5	1.788
313.15 K	787.6	1.391
323.15 K	778.7	1.098
